Assay results: patent US9994554B2, “Barbiturate and thiobarbiturate compounds for use in cancer therapy” (NUHOPE, LLC, priority 2011, dated 2018)
Several values for one entry are separate records, joined by “and”; a condition that tells them apart may be missing. Equal values may be shown once.

Columns and labels:
[1] = system: SW1088; assay: Cytotoxicity (MTS or SRB assay), SW1088; assay type: cell-based, human
Protocol: Human glioma cells were ordered from American Type Culture Collection (ATCC, Manassas, Va.), and maintained in DMEM with 4×10^−3M L-glutamine, 100 U/ml penicillin, 100 μg/ml streptomycin, and 10% fetal bovine serum (FBS). All experiments were performed at 37° C. in 5% CO2 atmosphere under cell culture conditions. […] Then cells received different dosages of γ-radiation from a ^60Co source GammaCell 220 (Nordion International Inc, Ontario, Canada) or chemotherapeutic agents for another 2-6 days. Cell cytotoxicity assay was determined by MTS [3-(4,5-dimethylthiazol-2-yl)-5-(3-carboxymethoxyphenyl)-2-(4-sulfophenyl)-2H-tetrazolium, inner salt] Cell Proliferation Assay (Promega, Madison, Wis.) or sulforhodamine B (SRB) assay at the end of the exposure period (47, 48).

[2] = system: U87-MG; assay: cells
Protocol: Human neuroblastoma cell lines were cultured in Dulbecco's Modified Eagle Medium (DMEM)/F12 media. Human glioma cells were ordered from American Type Culture Collection (ATCC, Manassas, Va.), and maintained in DMEM with 4×10^−3M L-glutamine, 100 U/ml penicillin, 100 μg/ml streptomycin, and 10% fetal bovine serum (FBS). All experiments were performed at 37° C. in 5% CO2 atmosphere under cell culture conditions. Prior to γ-radiation or exposure to chemotherapeutic agents, the glioma cells were plated at a density of 156 to 8,000 cells per well in 96 well plates to account for differences in growth rates, and to obtain similar cell densities for the experimental manipulations, and cultured overnight. Then cells received different dosages of γ-radiation from a ^60Co source GammaCell 220 (Nordion International Inc, Ontario, Canada) or chemotherapeutic agents for another 2-6 days. Cell cytotoxicity assay was determined by MTS [3-(4,5-dimethylthiazol-2-yl)-5-(3-carboxymethoxyphenyl)-2-(4-sulfophenyl)-2H-tetrazolium, inner salt] Cell Proliferation Assay (Promega, Madison, Wis.) or sulforhodamine B (SRB) assay at the end of the exposure period (47, 48).
Chemotype moiety compounds of CC-I were also tested on the Temodar-resistant CCF-STTG1 and Temodar®-sensitive U87-MG cell lines. The glioma cell culture and treatment is as described above.
The human glioma CCF-STTG1 cell lines were plated at a density of 5,000 cells per well in 96 well plates under standard DMEM cell culture conditions and then exposed to different concentrations of CC-I, merbarone, or ICRF-193 for 5 days. Merbarone and ICRF-193 are both topoisomerase II inhibitors (55, 56).

[3] = system: BREC; assay: Cytotoxicity, bovine retinal endothelial cells; assay type: cell-based
Protocol: Bovine retinal endothelial cells (BRECs) were isolated and processed according to a previously published procedure (49, 50). In brief, BREC was grown in MCDB-131 media (Sigma, St) supplemented with 10% FBS, 10 ng/mL EGF, 0.2 mg/mL ENDO GRO (VEC Technologies, Inc.), 0.09 mg/ml heparin, and antibiotic/antimycotic (Invitrogen).

[4] = system: NF215; assay: Cytotoxicity, NF215 neurofibroma cells; assay type: cell-based, human
Protocol: Cells of established neurofibroma cell lines were plated at a density of 2000-4000 cells per well in 96 well plates under standard cell culture conditions (54) and then exposed to CC-I for 2 days.

[5] = system: C282Y/SH-SY5Y; assay: cells; assay type: cell-based; settings: C282Y HFE transfected human neuroblastoma SH-SY5Y
Protocol: Human neuroblastoma cell lines were cultured in Dulbecco's Modified Eagle Medium (DMEM)/F12 media. Human glioma cells were ordered from American Type Culture Collection (ATCC, Manassas, Va.), and maintained in DMEM with 4×10^−3M L-glutamine, 100 U/ml penicillin, 100 μg/ml streptomycin, and 10% fetal bovine serum (FBS). All experiments were performed at 37° C. in 5% CO2 atmosphere under cell culture conditions. Prior to γ-radiation or exposure to chemotherapeutic agents, the glioma cells were plated at a density of 156 to 8,000 cells per well in 96 well plates to account for differences in growth rates, and to obtain similar cell densities for the experimental manipulations, and cultured overnight. […] Cell cytotoxicity assay was determined by MTS [3-(4,5-dimethylthiazol-2-yl)-5-(3-carboxymethoxyphenyl)-2-(4-sulfophenyl)-2H-tetrazolium, inner salt] Cell Proliferation Assay (Promega, Madison, Wis.) or sulforhodamine B (SRB) assay at the end of the exposure period (47, 48).

[6] = system: CCF-STTG1 cells; assay: FITC-Annexin V/propidium iodide apoptosis assay; assay type: cell-based, human
Protocol: An FITC-labeled Annexin V/propidium iodide apoptosis assay kit (Molecular Probes) was used to determine whether CC-I induces apoptosis in an astrocytoma cell line. […] The percentage of apoptotic cells by the CC-I treatment in CCF-STTG1 cells is from 10.9±0.16% at 5 pig/ml ([…]) to 48.7±0.33% at 10 μg/ml (36.2 μM). By comparison, the positive control, actinomycin D, induced apoptosis in 47.8±0.04% of the cells at 0.05 μg/ml (39.8 nM).

[7] = target: T1, topoisomerase IIα (Homo sapiens, UniProt P11388); assay: kDNA decatenation assay; assay type: biochemical
T1 sequence (P11388 whole entry): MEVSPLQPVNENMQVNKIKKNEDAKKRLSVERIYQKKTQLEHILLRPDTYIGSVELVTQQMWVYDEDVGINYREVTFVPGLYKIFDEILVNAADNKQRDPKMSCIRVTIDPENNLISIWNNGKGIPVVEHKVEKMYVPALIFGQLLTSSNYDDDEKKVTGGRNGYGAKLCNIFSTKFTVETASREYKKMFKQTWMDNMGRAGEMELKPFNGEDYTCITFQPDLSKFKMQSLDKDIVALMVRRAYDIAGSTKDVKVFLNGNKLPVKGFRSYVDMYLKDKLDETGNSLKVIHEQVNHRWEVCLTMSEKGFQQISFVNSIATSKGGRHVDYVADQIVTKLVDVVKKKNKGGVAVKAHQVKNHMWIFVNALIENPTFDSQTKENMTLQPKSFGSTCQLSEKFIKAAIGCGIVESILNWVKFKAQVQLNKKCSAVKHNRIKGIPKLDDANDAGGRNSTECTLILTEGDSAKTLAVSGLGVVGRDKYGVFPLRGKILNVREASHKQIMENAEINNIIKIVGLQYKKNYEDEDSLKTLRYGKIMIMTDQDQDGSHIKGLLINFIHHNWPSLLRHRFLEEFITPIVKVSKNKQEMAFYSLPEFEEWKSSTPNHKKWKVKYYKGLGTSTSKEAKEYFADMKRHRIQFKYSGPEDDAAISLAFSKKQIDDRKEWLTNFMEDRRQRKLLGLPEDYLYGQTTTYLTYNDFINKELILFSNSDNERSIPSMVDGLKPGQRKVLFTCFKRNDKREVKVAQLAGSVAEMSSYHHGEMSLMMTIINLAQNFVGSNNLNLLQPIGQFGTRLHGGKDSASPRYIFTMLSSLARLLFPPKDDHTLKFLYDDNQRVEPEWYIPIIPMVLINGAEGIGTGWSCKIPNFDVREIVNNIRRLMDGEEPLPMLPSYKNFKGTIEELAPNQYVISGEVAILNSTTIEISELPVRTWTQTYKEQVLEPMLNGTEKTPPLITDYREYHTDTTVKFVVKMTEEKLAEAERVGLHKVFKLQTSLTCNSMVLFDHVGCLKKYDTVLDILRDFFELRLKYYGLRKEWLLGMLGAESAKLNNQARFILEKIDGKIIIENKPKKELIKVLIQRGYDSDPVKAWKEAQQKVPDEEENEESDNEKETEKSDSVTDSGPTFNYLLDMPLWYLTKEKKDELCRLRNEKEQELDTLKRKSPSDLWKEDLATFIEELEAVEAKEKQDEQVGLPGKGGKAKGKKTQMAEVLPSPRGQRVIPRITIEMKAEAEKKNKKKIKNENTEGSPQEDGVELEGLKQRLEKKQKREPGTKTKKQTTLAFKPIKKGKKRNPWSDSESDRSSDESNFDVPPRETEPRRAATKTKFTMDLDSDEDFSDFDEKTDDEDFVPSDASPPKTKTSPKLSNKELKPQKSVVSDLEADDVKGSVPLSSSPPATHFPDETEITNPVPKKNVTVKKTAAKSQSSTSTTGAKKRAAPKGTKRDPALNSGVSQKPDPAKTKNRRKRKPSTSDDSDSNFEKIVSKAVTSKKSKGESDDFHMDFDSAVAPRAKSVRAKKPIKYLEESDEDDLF
Description: To assess whether CC-I is a human topoisomerase IIα inhibitor, we determined the ability of CC-I to inhibit topoisomerase IIα activity using a kDNA decatenation assay.

[8] = target: T1, topoisomerase IIα; assay: Supercoiled pHOT1 DNA relaxation assay; assay type: biochemical
[9] = system: C282Y HFE variant expressing neuroblastoma SH-SY5Y cells; assay: SCID mouse subcutaneous neuroblastoma tumor model; settings: 25 mg/kg i.p. once a week for 7 weeks
Protocol: To determine the effect of CC-I on neuroblastoma, an in vivo subcutaneous tumor model in SCID mice was examined. One month old, female SCID mice were injected subcutaneously in the flank region with a Temodar®- and radiation-resistant C282Y HFE variant expressing neuroblastoma SH-SY5Y cells. After the tumor attained a volume of 32 mm^3, CC-I (25 mg/kg) was injected intraperitoneally once a week for 7 weeks.

CCN1C(=O)C(=C/C=C/c2ccco2)C(=O)NC1=S [CC-I]
LD50 ([1]; SW-1088 astrocytoma cells): ≈ 0.5 μg/ml and ~1.7 μM | IC50 ([1]; human astrocytoma or glioblastoma cell line, read-out: IC50 (μM) SW1088): 1.7 µM | cytotoxicity compared with merbarone or ICRF-193 ([2]; U87-MG, 5 days): more cytotoxic | IC50 ([2]; read-out: IC50 (μM) U87-MG, human astrocytoma or glioblastoma cell line): 3.9 µM | IC50 ([3]; bovine retinal endothelial cell): 46.9 µM | toxicity to bovine retinal endothelial cells (BREC) ([3]; model for the blood-brain-barrier): not toxic | LD50 ([4]; NF215 neurofibroma cells, 2 days exposure): 1.4 µg/mL | IC50 ([4]; human neurofibroma cell line): 5.1 µM | IC50 [5]: 1.8 µM | percentage of apoptotic cells ([6]; CCF-STTG1, at 10 μg/ml (36.2 μM)): 48.7±0.33% | percentage of apoptotic cells ([6]; CCF-STTG1, at 5 pig/ml (18.1 µM)): 10.9±0.16% | concentration completely inhibiting topoisomerase IIα catalyzed kDNA decatenation [7]: greater than 6 μg/ml | concentration completely inhibiting topoisomerase IIα catalyzed pHOT1 relaxation [8]: greater than 3 μg/ml | most effective concentration on topoisomerase IIα activity [8]: 3 µg/mL | body weight [9]: unaffected | liver or kidney toxicity [9]: No liver or kidney toxicity | tumor growth ([9]; SCID mice): completely inhibited tumor growth
